How the values were obtained:
[1] = Drug distribution in nude mouse blood xenografted with human 22Rv1 cells at 8.1 MBq,iv measured after 2 hrs in presence of 2-PMPA; assay type: ADME, tissue-based, CWR22R; settings: in vivo
[2] = Drug distribution in nude mouse liver xenografted with human 22Rv1 cells at 8.1 MBq,iv measured after 2 hrs in presence of 2-PMPA; assay type: ADME, tissue-based, CWR22R; settings: in vivo
[3] = Drug distribution in nude mouse gall bladder xenografted with human 22Rv1 cells at 8.1 MBq,iv measured after 2 hrs; assay type: ADME, tissue-based, CWR22R; settings: in vivo
[4] = Drug distribution in nude mouse gall bladder xenografted with human 22Rv1 cells at 8.1 MBq,iv measured after 4 hrs; assay type: ADME, tissue-based, CWR22R; settings: in vivo
[5] = Drug distribution in nude mouse tumor xenografted with human 22Rv1 cells at 8.1 MBq,iv measured after 4 hrs; assay type: ADME, tissue-based, Neoplasm, CWR22R; settings: in vivo
[6] = Drug distribution in nude mouse gall bladder xenografted with human 22Rv1 cells at 8.1 MBq,iv measured after 2 hrs in presence of 2-PMPA; assay type: ADME, tissue-based, CWR22R; settings: in vivo
[7] = Drug uptake in human 22Rv1 cells at 3.7 10^-2MBq pretreated with 2-PMPA for 30 mins followed by compound addition and measured after 4 hr relative to control; assay type: ADME, cell-based; settings: cwr22r
[8] = Drug distribution in nude mouse brain xenografted with human 22Rv1 cells at 8.1 MBq,iv measured after 1 hr; assay type: ADME, tissue-based, CWR22R; settings: in vivo
[9] = Drug distribution in nude mouse bone xenografted with human 22Rv1 cells at 8.1 MBq,iv measured after 1 hr; assay type: ADME, tissue-based, Bone element, CWR22R; settings: in vivo
[10] = Drug distribution in nude mouse brain xenografted with human 22Rv1 cells at 8.1 MBq,iv measured after 2 hrs in presence of 2-PMPA; assay type: ADME, tissue-based, CWR22R; settings: in vivo
[11] = Drug distribution in nude mouse small intestine xenografted with human 22Rv1 cells at 8.1 MBq,iv measured after 1 hr; assay type: ADME, tissue-based, CWR22R; settings: in vivo
[12] = Drug distribution in nude mouse gall bladder xenografted with human 22Rv1 cells at 8.1 MBq,iv measured after 1 hr; assay type: ADME, tissue-based, CWR22R; settings: in vivo
[13] = Drug distribution in nude mouse brain xenografted with human 22Rv1 cells at 8.1 MBq,iv measured after 4 hrs; assay type: ADME, tissue-based, CWR22R; settings: in vivo
[14] = Drug distribution in nude mouse heart xenografted with human 22Rv1 cells at 8.1 MBq,iv measured after 1 hr; assay type: ADME, tissue-based, CWR22R; settings: in vivo
[15] = Drug uptake in mouse tumor xenografted with human 22Rv1 cells at 7.4 MBq, iv pretreated with 2-PMPA measured after 4 hrs by PET imaging analysis relative to control; assay type: ADME, organism-based, Neoplasm, CWR22R; settings: in vivo
[16] = Drug distribution in nude mouse muscle tissue xenografted with human 22Rv1 cells at 8.1 MBq,iv measured after 1 hr; assay type: ADME, tissue-based, CWR22R; settings: in vivo
[17] = Drug distribution in nude mouse large intestine xenografted with human 22Rv1 cells at 8.1 MBq,iv measured after 4 hrs; assay type: ADME, tissue-based, CWR22R; settings: in vivo
[18] = Drug distribution in nude mouse small intestine xenografted with human 22Rv1 cells at 8.1 MBq,iv measured after 4 hrs; assay type: ADME, tissue-based, CWR22R; settings: in vivo
[19] = Drug uptake in mouse tumor xenografted with human 22Rv1 cells at 7.4 MBq, iv measured after 2 hrs by PET imaging analysis relative to control; assay type: ADME, organism-based, Neoplasm, CWR22R; settings: in vivo
[20] = Drug uptake in mouse abdomen xenografted with human 22Rv1 cells at 7.4 MBq, iv measured after 2 to 4 hrs by PET imaging analysis; assay type: ADME, organism-based, CWR22R; settings: in vivo, time 2-4 hrs
[21] = Drug distribution in nude mouse stomach xenografted with human 22Rv1 cells at 8.1 MBq,iv measured after 2 hrs; assay type: ADME, tissue-based, CWR22R; settings: in vivo
[22] = Drug distribution in nude mouse liver xenografted with human 22Rv1 cells at 8.1 MBq,iv measured after 1 hr; assay type: ADME, tissue-based, CWR22R; settings: in vivo
[23] = Drug distribution in nude mouse large intestine xenografted with human 22Rv1 cells at 8.1 MBq,iv measured after 2 hrs; assay type: ADME, tissue-based, CWR22R; settings: in vivo
[24] = Drug distribution in nude mouse kidney xenografted with human 22Rv1 cells at 8.1 MBq,iv measured after 4 hrs; assay type: ADME, tissue-based, CWR22R; settings: in vivo
[25] = Drug uptake in mouse tumor xenografted with human 22Rv1 cells at 7.4 MBq, iv pretreated with 2-PMPA measured after 2 hrs by PET imaging analysis relative to control; assay type: ADME, organism-based, Neoplasm, CWR22R; settings: in vivo
[26] = Drug distribution in nude mouse tumor xenografted with human 22Rv1 cells at 8.1 MBq,iv measured after 2 hrs in presence of 2-PMPA; assay type: ADME, tissue-based, Neoplasm, CWR22R; settings: in vivo
[27] = Drug distribution in nude mouse spleen xenografted with human 22Rv1 cells at 8.1 MBq,iv measured after 2 hrs; assay type: ADME, tissue-based, CWR22R; settings: in vivo
[28] = Drug distribution in nude mouse kidney xenografted with human 22Rv1 cells at 8.1 MBq,iv measured after 2 hrs in presence of 2-PMPA; assay type: ADME, tissue-based, CWR22R; settings: in vivo
[29] = Drug distribution in nude mouse muscle tissue xenografted with human 22Rv1 cells at 8.1 MBq,iv measured after 2 hrs; assay type: ADME, tissue-based, CWR22R; settings: in vivo
[30] = Drug distribution in nude mouse small intestine xenografted with human 22Rv1 cells at 8.1 MBq,iv measured after 2 hrs in presence of 2-PMPA; assay type: ADME, tissue-based, CWR22R; settings: in vivo
[31] = Drug distribution in nude mouse lung xenografted with human 22Rv1 cells at 8.1 MBq,iv measured after 2 hrs in presence of 2-PMPA; assay type: ADME, tissue-based, CWR22R; settings: in vivo
[32] = Drug distribution in nude mouse blood xenografted with human 22Rv1 cells at 8.1 MBq,iv measured after 1 hr; assay type: ADME, tissue-based, CWR22R; settings: in vivo

COc1cc(C(=O)N[C@@H](CCC(=O)O)C(=O)N[C@@H](CCC(=O)O)C(=O)NCc2ccc(C(=O)N[C@@H](Cc3ccc4ccccc4c3)C(=O)NCCCC[C@H](NC(=O)N[C@@H](CCC(=O)O)C(=O)O)C(=O)O)cc2)ccc1OS(=O)(=O)[18F]
Drug uptake [1]: 3.86 % ID/g
Drug uptake [2]: 2.4 % ID/g
Drug uptake [3]: 6.05 % ID/g
Drug uptake [4]: 1.39 % ID/g
Drug uptake [5]: 4.47 % ID/g
Drug uptake [6]: 4.39 % ID/g
Drug uptake [7]: 0.26%
Drug uptake [8]: 0.15 % ID/g
Drug uptake [9]: 2.11 % ID/g
Drug uptake [10]: 0.08 % ID/g
Drug uptake [11]: 2.58 % ID/g
Drug uptake [12]: 3.69 % ID/g
Drug uptake [13]: 0.02 % ID/g
Drug uptake [14]: 1.57 % ID/g
Drug uptake [15]: 1.4 % ID/g
Drug uptake [16]: 1.32 % ID/g
Drug uptake [17]: 1.34 % ID/g
Drug uptake [18]: 0.79 % ID/g
Drug uptake [19]: 2.85 % ID/g
Drug uptake [20]: Active
Drug uptake [21]: 0.95 % ID/g
Drug uptake [22]: 4.61 % ID/g
Drug uptake [23]: 2.77 % ID/g
Drug uptake [24]: 19.91 % ID/g
Drug uptake [25]: 1.37 % ID/g
Drug uptake [26]: 1.82 % ID/g
Drug uptake [27]: 1.23 % ID/g
Drug uptake [28]: 4.33 % ID/g
Drug uptake [29]: 0.45 % ID/g
Drug uptake [30]: 9.02 % ID/g
Drug uptake [31]: 1.58 % ID/g
Drug uptake [32]: 6.43 % ID/g

Source: ChEMBL document CHEMBL5550152, “Design, synthesis and evaluation of novel prostate-specific membrane antigen-targeted aryl [18F]fluorosulfate PET tracers” (Bioorg Med Chem, 2024)
